Assays:
[1] = system: NMRI mice; test: subcutaneous pentylenetetrazole (scPTZ) induced seizure model; type: in vivo; settings: tested in mixture form
Protocol: (§1) Male NMRI albino mice weighing 19-22 g were housed in an environmentally regulated room on a 12 h light: 12 h dark cycle with 25±1° C. and had free access to food and water. The use of animals in experimental protocol was approved by the research committee of the ICCS, University of Karachi, in accordance with the international guidelines for the care and use of laboratory animals. The anticonvulsant activity of compounds in mixture form was determined after intraperitoneal administration to NMRI mice weighing 19-22 g. Maximal electroshock (MES) and subcutaneous pentylenetetrazole (scPTZ) induced seizure models were used to test the anticonvulsant properties of compounds. […] Protection against HLTE in MEST predicts the ability of a testing material to prevent the spread of seizures discharge from the epileptic focus in brain in additions effectiveness in MEST correlates with efficacy in suppressing the generalized tonic-clonic and partial seizures. […] Anticonvulsant activity in the scPTZ test identifies compounds that can raise seizure threshold in the brain.

[2] = system: NMRI mice; test: Maximal electroshock (MES) induced seizure model; type: in vivo; settings: tested in mixture form
Protocol: as §1

Row | Compound | prevention of convulsions in chemically-induced seizure model [1] | prevention of convulsions in electrically-induced seizure model [2]
1 | CC(=O)/C=C1/C=C(C)CC(C)(C)C1 [Isoxylitone A, 2-Propanone 1-(3,5,5-trimethyl-2-cyclohexen-1-ylidene) (1E)] | able to prevent convulsions | able to prevent convulsions
2 | CC(=O)/C=C1\C=C(C)CC(C)(C)C1 [Isoxylitone B, 2-Propanone, 1-(3,5,5-trimethyl-2-cyclohexen-1-ylidene)-, (1Z)] | able to prevent convulsions | able to prevent convulsions
